Results on 30 compounds are retold here after patent US20060223792A1, “Phenyl and pyridyl LTA4H modulators” (priority 2005, published 2006).

pIC50: −log10 of the molar value. Structures can show the parent of a compound that is named as a salt. Where two headings read alike, the source gives them in different places.

The target of this test is T1, recombinant human LTA4 hydrolase (rhLTA4H) (Homo sapiens, UniProt P09960).
T1 construct: made in house; host or cells: Spodoptera frugiperda (Sf-9) cells, baculovirus (pFastBac1)
T1 sequence (P09960 1-611): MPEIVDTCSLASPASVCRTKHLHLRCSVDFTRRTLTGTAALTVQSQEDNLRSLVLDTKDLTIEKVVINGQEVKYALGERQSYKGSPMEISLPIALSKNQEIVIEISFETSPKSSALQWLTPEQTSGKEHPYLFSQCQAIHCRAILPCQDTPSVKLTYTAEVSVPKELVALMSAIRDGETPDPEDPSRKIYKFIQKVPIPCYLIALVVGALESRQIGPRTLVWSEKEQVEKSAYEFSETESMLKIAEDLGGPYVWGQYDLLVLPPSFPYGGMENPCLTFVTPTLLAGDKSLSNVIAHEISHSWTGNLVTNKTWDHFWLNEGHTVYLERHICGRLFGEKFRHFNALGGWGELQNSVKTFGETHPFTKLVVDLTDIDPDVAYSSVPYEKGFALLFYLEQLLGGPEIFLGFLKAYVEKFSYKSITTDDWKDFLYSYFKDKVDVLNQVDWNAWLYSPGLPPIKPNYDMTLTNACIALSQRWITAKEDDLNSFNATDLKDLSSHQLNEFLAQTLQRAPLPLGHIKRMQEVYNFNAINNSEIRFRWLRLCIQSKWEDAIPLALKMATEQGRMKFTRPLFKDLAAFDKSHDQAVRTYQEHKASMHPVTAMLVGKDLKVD
Nature of the test: Recombinant human LTA4 hydrolase assay for LTA4 hydrolase inhibitor activity. Format: biochemical. Here is the method: Recombinant Human LTA4 Hydrolase Assay for LTA4 Hydrolase Inhibitor Activity
Compounds of the present invention were tested for LTA4 hydrolase inhibitor activity against recombinant human LTA4 hydrolase (rhLTA4H). Vectors were prepared and used to express rhLTA4H essentially as follows: LTA4 hydrolase encoding DNA was amplified by polymerase chain reaction (PCR) using a human placental cDNA library as a template. Oligonucleotide primers for the PCR reaction were based on the 5′-end, and the complement of the 3′-end, of the published nucleotide sequence for the coding region of the human LTA4 hydrolase gene (C. D. Funk et al., Proc. Natl. Acad. Sci. USA 1987, 84:6677-6681). The amplified […] DNA fragment encoding LTA4 hydrolase was isolated and cloned into the pFastBac1 vector (Invitrogen). Recombinant baculovirus was generated as described by the manufacturer, and used to infect Spodoptera frugiperda (Sf-9) cells. Recombinant LTA4 hydrolase enzyme was purified from the infected Sf-9 cells essentially as described by J. K. Gierse et al. (Protein Expr. Purif. 1993, 4(5):358-366). The purified enzyme solution was adjusted to contain 0.29 mg/mL LTA4 hydrolase, 50 mM Tris (pH 8.0),150 mM NaCl, 5 mM dithiothreitol, 50% glycerol, and EDTA-free Complete protease inhibitor cocktail (Roche). The specific activity of the enzyme was about 3.8 μmol/min/mg.
LTA4 substrate was prepared from the methyl ester of LTA4 (Cayman Chemical) by treatment with 67 equiv. of NaOH under nitrogen at rt for 40 min. The LTA4 substrate in its free acid form was kept frozen at −80° C. until needed. Each compound was diluted to different concentrations in assay buffer (0.1 M potassium phosphate (pH 7.4), 5 mg/mL fatty acid free BSA) containing 10% DMSO. A 25-μL aliquot of each compound dilution was incubated for 10 min at rt with an equal volume of assay buffer containing 36 ng of recombinant human LTA4H. The solution was then adjusted to 200 μL with assay buffer. LTA4 (free acid) was thawed and diluted in assay buffer to a concentration of 357 ng/mL, and 25 μL (9 ng) of LTA4 substrate was added to the reaction mixture (total volume=225 μL) at time zero. Each reaction was carried out at rt for 10 min. The reaction was stopped by diluting 10 μL of the reaction mixture with 200 μL of assay buffer. LTB4 was quantifiedin the diluted sample by a commercially available enzyme-linked immunoassay (Cayman Chemical Co.), as recommended by the manufacturer. Positive controls, under essentially identical conditions but without addition of an inhibitor compound, and negative controls, containing all assay components except enzyme, were routinely run in each experiment. IC50 values were determined by fitting the activity data at different compound concentrations to a 4-parameter equation using the Grafit program (Erithacus software).
The IC50 values presented in the table below should be expected to fall within the typical three-fold variability of assays of this type. The values presented here are, in general, an average of one to three determinations.

Where [1] appears, read: recombinant human LTA4H, LTB4 quantified by enzyme-linked immunoassay, average of one to three determinations, read-out: IC50.

As a reminder, the pIC50 is −log10 of the IC50, conventionally taken in molar units. Consider `CCOC(=O)C1CCN(CCOc2ccc(OC(=O)N(C)c3cccc(O)c3)cc2)CC1` [Example 8, 1-(2-{4-[(3-Hydroxy-phenyl)-methyl-carbamoyloxy]-phenoxy}-ethyl)-piperidine-4-carboxylic acid ethyl ester], for which the pIC50 under setting [1] was 7.00.
On the same count and under the same terms, as for `CN(C(=O)Oc1ccc(OCCN2CCC(C(=O)O)CC2)cc1)c1cccc(O)c1` [Example 9, 1-(2-{4-[(3—hydroxy-phenyl)-methyl-carbamoyloxy]-phenoxy}-ethyl)-piperidine-4-carboxylic acid], the figure is 6.41; as for `CN(C)C(=O)Oc1ccc(OCCN2CCC(O)(c3ccccc3)CC2)cc1` [Example 10, Dimethyl-carbamic acid 4-[2-(4-hydroxy-4-phenyl-piperidin-1-yl)-ethoxy]-phenyl ester], 7.28.
Turning to `O=C(Nc1ccc(OCCN2CCCCC2)cc1)Oc1ccccc1` [Example 14, [4-(2-Piperidin-1-yl-ethoxy)-phenyl]-carbamic acid phenyl ester hydrochloride], the pIC50 is 5.75.
On to `O=C(Nc1ccccc1)OCc1ccc(OCCN2CCCCC2)cc1` [Example 16, Phenyl-carbamic acid 4-(2-piperidin-1-yl-ethoxy)-benzyl ester], for which the pIC50 under setting [1] was 6.45.
In the case of `O=C(Nc1ccccc1)Oc1ccc(CCN2CCC(O)(c3ccccc3)CC2)cc1` [Example 17, Phenyl-carbamic acid 4-[2-(4-hydroxy-4-phenyl-piperidin-1-yl)-ethyl]-phenyl ester], the pIC50 under setting [1] is 7.48.
Same read-out and setting: as for `CCOC(=O)C1CCCN(C2CCN(CCc3ccc(OCCc4ccccc4)cc3)CC2)C1` (stereo not drawn) [Example 18, 1′-[2-(4-Phenethyloxy-phenyl)-ethyl]-[1,4]′bipiperidinyl-3-carboxylic acid ethyl ester], the figure is 7.00.
Turning to `O=C(O)C1CCCN(C2CCN(CCc3ccc(OCCc4ccccc4)cc3)CC2)C1` (stereo not drawn) [Example 19, 1′-[2-(4-Phenethyloxy-phenyl)-ethyl]-[1,4′]bipiperidinyl-3-carboxylic acid], the pIC50 under setting [1] is 6.65.
The same measure, in the same setting: to `O=C(Oc1ccccc1)Oc1ccc(OCCN2CCCCC2)cc1` [Example 20, Carbonic acid phenyl ester 4-(2-piperidin-1-yl-ethoxy)-phenyl ester] belongs 9.00; to `O=C(Cc1ccccc1)Oc1ccc(OCCN2CCCCC2)cc1` [Example 21, Phenyl-acetic acid 4-(2-piperidin-1-yl-ethoxy)-phenyl ester], 9.00.
With `CC(C(=O)Oc1ccc(OCCN2CCCCC2)cc1)c1ccccc1` (stereo not drawn) [Example 22, 2-Phenyl-propionic acid 4-(2-piperidin-1-yl-ethoxy)-phenyl ester], the pIC50 under setting [1] is 7.68.
Same read-out and setting: to `O=C(Oc1ccc(OCCN2CCCCC2)cc1)c1cc2ccccc2[nH]1` [Example 23, 1H-Indole-2-carboxylic acid 4-(2-piperidin-1-yl-ethoxy)-phenyl ester] belongs 7.12; to `O=C(COc1ccc(CCN2CCC(N3CCCCC3=O)CC2)cc1)c1ccccc1` [Example 26, 1′-{2-[4-(2-Oxo-2-phenyl-ethoxy)-phenyl]-ethyl}-[1,4′]bipiperidinyl-2-one], 6.46.
Regarding `O=C1CCCCN1C1CCN(CCc2ccc(OCC(O)c3ccccc3)cc2)CC1` (stereo not drawn) [Example 27, 1′-{2-[4-(2-Hydroxy-2-phenyl-ethoxy)-phenyl]-ethyl}-[1,4′]bipiperidinyl-2-one], the pIC50 under setting [1] was 8.40.
`Oc1cccc(CCOc2ccc(OCCN3CCCCC3)cc2)c1` [Example 28, 3-{2-[4-(2-Piperidin-1-yl-ethoxy)-phenoxy]-ethyl}-phenol]: under setting [1], the pIC50 was 7.66.
For `N#CC1CCN(CCc2ccc(OCCc3ccccc3)cc2)CC1` [Example 29, 1-[2-(4-Phenethyloxy-phenyl)-ethyl]-piperidine-4-carbonitrile], the pIC50 under setting [1] is 7.26.
Same read-out and setting: as for `c1ccc(CCOc2ccc(CCN3CCC(c4c[nH]nn4)CC3)cc2)cc1` [Example 31, 1-[2-(4-Phenethyloxy-phenyl)-ethyl]-4-(1H-[1,2,3]triazol-4-yl)-piperidine], the figure is 7.48; as for `c1ccc(CCOc2ccc(CCNC3CC3)cc2)cc1` [Example 32, Cyclopropyl-[2-(4-phenethyloxy-phenyl)-ethyl]-amine], 6.75.
On the same count and under the same terms, as for `N#CCCCN(CCc1ccc(OCCc2ccccc2)cc1)C1CC1` [Example 33, 4-{Cyclopropyl-[2-(4-phenethyloxy-phenyl)-ethyl]-amino}-butyronitrile], the figure is 7.31; as for `O=C(Nc1ccccc1)Oc1ccc(CCCN2CCC(O)(c3ccccc3)CC2)cc1` [Example 36, Phenyl-carbamic acid 4-[3-(4-hydroxy-4-phenyl-piperidin-1-yl)-propyl]-phenyl ester], 8.30.
On the same count and under the same terms, to `O=C(Nc1ccccc1)Oc1ccc(CCCN2CCCCC2)cc1` [Example 37, Phenyl-carbamic acid 4-(3-piperidin-1-yl-propyl)-phenyl ester] belongs 7.82.
In the case of `CCCN(CCCc1ccc(OC(=O)Nc2ccccc2)cc1)CC1CC1` [Example 38, Phenyl-carbamic acid 4-[3-(cyclopropylmethyl-propyl-amino)-propyl]-phenyl ester hydrochloride], the pIC50 is 8.22.
For `O=C(Nc1ccc(O)cc1)Oc1ccc(OCCN2CCC(O)(c3ccccc3)CC2)cc1` [Example 39, (4—hydroxy-phenyl)-carbamic acid 4-[2-(4-hydroxy-4-phenyl-piperidin-1-yl)-ethoxy]-phenyl ester], the pIC50 under setting [1] was 9.40.
`CCCC1CCN(CCOc2ccc(OC(=O)Nc3ccccc3)cc2)CC1` [Example 41, Phenyl-carbamic acid 4-[2-(4-propyl-piperidin-1-yl)-ethoxy]-phenyl ester]: the pIC50 under setting [1] was 9.00.
On the same count and under the same terms, as for `O=C(Nc1ccccc1)Oc1ccc(OCCCN2CCC(O)(c3ccccc3)CC2)cc1` [Example 42, Phenyl-carbamic acid 4-[3-(4-hydroxy-4-phenyl-piperidin-1-yl)-propoxy]-phenyl ester], the figure is 9.00; as for `O=C(Nc1ccccc1F)Oc1ccc(OCCN2CCCCC2)cc1` [Example 43, (2-Fluoro-phenyl)-carbamic acid 4-(2-piperidin-1-yl-ethoxy)-phenyl ester], 8.15.
Still for that read-out and setting: to `O=C(Cc1ccc(OCCN2CCCCC2)cc1)Nc1ccccc1O` [Example 44, N-(2—hydroxy-phenyl)-2-[4-(2-piperidin-1-yl-ethoxy)-phenyl]-acetamide] belongs 7.19; to `O=C(Nc1cccc(Cl)c1)Oc1ccc(OCCN2CCCCC2)cc1` [Example 45, (3-Chloro-phenyl)-carbamic acid 4-(2-piperidin-1-yl-ethoxy)-phenyl ester], 7.19; to `CCN(CC)CCOc1ccc(OC(=O)Nc2ccccc2)cc1` [Example 46, Phenyl-carbamic acid 4-(2-diethylamino-ethoxy)-phenyl ester], 8.15.
For `CCCN(CCOc1ccc(OC(=O)Nc2ccccc2)cc1)CC1CC1` [Example 49, Phenyl-carbamic acid 4-[2-(cyclopropylmethyl-propyl-amino)-ethoxy]-phenyl ester], under setting [1], the pIC50 was 8.40.
